This is an account of results in patent US8148391B2 (Cephalon, Inc., priority 2006, dated 2012).

In test [1] the target is T1, baculovirus-expressed ALK (Homo sapiens, UniProt Q9UM73).
T1 construct: host or cells: baculovirus expression system
Briefly: ALK Kinase Assay (ELISA-type, time-resolved fluorescence). Type of test: biochemical. In a few lines:
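Wells were coated with phospholipase C-γ at 10 μg/mL in Tris-buffered saline. Adding 30 ng/ml enzyme started the reaction, which ran at 37° C for 15 minutes before Eu-N1 PT66 antibody detection. Percent inhibition versus log10 concentration gave IC50 by variable-slope fit.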

In test [2] the target is T2, c-Met (cytoplasmic domain) (Homo sapiens, UniProt P08581).
T2 construct: 10 ng/mL c-Met (cytoplasmic domain, Invitrogen Corporation #PV3143); purchased Invitrogen Corporation PV3143
Description: c-Met Kinase Assay (same methods as for ALK, with modifications). The class given is biochemical. In a few lines: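 IC50 values were fitted by variable-slope sigmoidal regression of percent inhibition against log compound concentration. Phosphorylation was read with Eu-N1 PT66 antibody after a 15 min, 37 °C reaction. The reaction was initiated with 10 ng/mL c-Met cytoplasmic domain on wells coated with 10 μg/mL PLC-γ in TBS.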

Setting [3] is: 1 μM ATP (Km level), read-out: ALK Activity (ALK Kinase Inhibition, IC50).
[4] abbreviates: 1 μM ATP (Km level), read-out: cMet Activity (c-Met Kinase Inhibition, IC50).
The mark [5] stands for this setting: 1 μM ATP (Km level), 30 ng/ml ALK, 37° C., 15 minutes, read-out: ALK Activity (ALK kinase inhibition, IC50 class).
[6] abbreviates: 1 μM ATP (Km level), 10 ng/mL c-Met, read-out: cMet Activity (c-Met kinase inhibition, IC50 class).
The mark [7] stands for this setting: ALK kinase inhibition, 1 μM ATP, read-out: ALK Activity.
The mark [8] stands for this setting: c-Met kinase inhibition, 1 μM ATP, read-out: cMet Activity.

Where two headings read alike, the source gives them in different places. Bounds are passed on as bounds.

T1 sequence (Q9UM73 19-1620): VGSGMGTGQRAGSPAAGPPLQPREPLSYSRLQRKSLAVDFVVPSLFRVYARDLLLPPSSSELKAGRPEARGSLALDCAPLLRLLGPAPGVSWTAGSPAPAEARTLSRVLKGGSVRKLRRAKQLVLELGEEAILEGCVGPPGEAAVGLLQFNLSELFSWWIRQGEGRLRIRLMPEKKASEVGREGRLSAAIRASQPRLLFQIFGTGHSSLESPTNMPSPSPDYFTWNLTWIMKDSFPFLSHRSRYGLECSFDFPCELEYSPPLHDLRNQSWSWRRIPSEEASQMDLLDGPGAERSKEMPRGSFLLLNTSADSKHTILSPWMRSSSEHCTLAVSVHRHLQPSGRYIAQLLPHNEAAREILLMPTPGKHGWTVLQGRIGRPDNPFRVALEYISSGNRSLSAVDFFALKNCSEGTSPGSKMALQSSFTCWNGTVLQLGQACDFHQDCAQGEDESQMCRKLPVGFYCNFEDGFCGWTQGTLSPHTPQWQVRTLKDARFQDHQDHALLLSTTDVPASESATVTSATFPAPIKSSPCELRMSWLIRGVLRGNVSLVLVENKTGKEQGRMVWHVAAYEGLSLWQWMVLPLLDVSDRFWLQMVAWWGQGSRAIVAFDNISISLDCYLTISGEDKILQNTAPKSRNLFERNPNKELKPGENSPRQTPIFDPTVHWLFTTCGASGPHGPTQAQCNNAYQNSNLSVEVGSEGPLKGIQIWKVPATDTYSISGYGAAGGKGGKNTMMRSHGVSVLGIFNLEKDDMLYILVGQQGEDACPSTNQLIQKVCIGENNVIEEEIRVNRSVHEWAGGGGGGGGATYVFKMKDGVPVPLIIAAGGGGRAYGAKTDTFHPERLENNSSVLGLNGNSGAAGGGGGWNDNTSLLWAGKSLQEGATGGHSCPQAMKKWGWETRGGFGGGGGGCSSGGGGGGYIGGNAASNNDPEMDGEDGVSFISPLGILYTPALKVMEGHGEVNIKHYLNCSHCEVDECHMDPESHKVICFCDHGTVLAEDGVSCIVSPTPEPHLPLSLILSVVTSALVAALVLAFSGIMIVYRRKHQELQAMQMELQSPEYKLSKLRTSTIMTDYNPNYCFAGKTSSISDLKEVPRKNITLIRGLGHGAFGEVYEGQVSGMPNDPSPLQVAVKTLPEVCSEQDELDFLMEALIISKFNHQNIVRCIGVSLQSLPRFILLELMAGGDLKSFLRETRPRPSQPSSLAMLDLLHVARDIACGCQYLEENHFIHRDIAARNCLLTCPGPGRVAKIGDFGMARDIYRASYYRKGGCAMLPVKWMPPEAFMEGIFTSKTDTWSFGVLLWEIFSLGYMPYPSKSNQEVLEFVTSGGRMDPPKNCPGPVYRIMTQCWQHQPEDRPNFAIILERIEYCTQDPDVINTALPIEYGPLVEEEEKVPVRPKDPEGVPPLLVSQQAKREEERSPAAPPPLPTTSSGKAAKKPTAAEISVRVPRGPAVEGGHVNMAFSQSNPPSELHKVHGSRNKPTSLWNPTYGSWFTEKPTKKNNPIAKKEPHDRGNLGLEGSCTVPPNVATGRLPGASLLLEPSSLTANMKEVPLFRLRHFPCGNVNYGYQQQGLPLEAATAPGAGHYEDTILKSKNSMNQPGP
T2 sequence (P08581 956-1390 limits assumed): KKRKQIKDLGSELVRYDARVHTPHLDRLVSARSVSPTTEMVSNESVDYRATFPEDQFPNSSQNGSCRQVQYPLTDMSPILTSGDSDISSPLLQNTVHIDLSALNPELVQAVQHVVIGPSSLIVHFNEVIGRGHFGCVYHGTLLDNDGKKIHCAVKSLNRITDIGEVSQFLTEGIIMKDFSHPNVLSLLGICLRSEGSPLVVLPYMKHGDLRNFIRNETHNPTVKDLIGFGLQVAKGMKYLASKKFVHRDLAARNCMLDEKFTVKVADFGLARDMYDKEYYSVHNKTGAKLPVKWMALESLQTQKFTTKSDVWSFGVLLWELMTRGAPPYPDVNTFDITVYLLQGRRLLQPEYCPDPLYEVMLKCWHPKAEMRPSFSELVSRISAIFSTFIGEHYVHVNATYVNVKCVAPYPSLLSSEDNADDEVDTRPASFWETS

On to `COc1cc2c(cc1Nc1ncc(F)c(Nc3ccc(N4CCOCC4)cc3OC)n1)CCN(CC(N)=O)CC2` [Example 810, 2-{7-[5-Fluoro-4-(2-methoxy-4-morpholin-4-yl-phenylamino)-pyrimidin-2-ylamino]-8-methoxy-1,2,4,5-tetrahydro-benzo[d]azepin-3-yl}-acetamide], for which the IC50 in test [1] (setting [3]) is below 100 nM; in test [2] (setting [4]), above 10000 nM.
Consider `COc1cccc(C(=O)NCC#N)c1Nc1nc(Nc2ccc3c(c2)C(C)(C)CCC(=O)N3)ncc1Cl` [Example 1064, 2-[5-Chloro-2-(5,5-dimethyl-2-oxo-2,3,4,5-tetrahydro-1H-benzo[b]azepin-7-ylamino)-pyrimidin-4-ylamino]-N-cyanomethyl-3-methoxy-benzamide], for which the IC50 in test [1] (setting [5]) and in test [2] (setting [6]) was 1000 to 10000 nM throughout.
With `COCCN1CCc2ccc(Nc3ncc(C(F)(F)F)c(N[C@H]4[C@@H](C(N)=O)[C@@H]5C=C[C@H]4C5)n3)cc2CC1` [Example 934, (1S,2S,3R,4R)-3-{2-[3-(2-Methoxy-ethyl)-2,3,4,5-tetrahydro-1H-3-benzazepin-7-ylamino]-5-trifluoromethyl-pyrimidin-4-ylamino}-bicyclo[2.2.1]hept-5-ene-2-carboxylic acid amide], the IC50 in test [1] (setting [3]) and in test [2] (setting [4]) was below 100 nM in each case.
Regarding `COc1cc2c(cc1Nc1ncc(Cl)c(Nc3ccccc3S(=O)(=O)N3CCC(O)C3)n1)CCC(NCCO)CC2` (centres unmarked) [Example 1088, 1-(2-{5-Chloro-2-[7-(2-hydroxy-ethylamino)-3-methoxy-6,7,8,9-tetrahydro-5H-benzocyclohepten-2-ylamino]-pyrimidin-4-ylamino}-benzenesulfonyl)-pyrrolidin-3-ol], the IC50 in test [1] (setting [5]) is below 100 nM; in test [2] (setting [6]), 1000 to 10000 nM.
In the case of `CCOC(=O)N1C2CCC1c1cc(Nc3ncc(Cl)c(Nc4ccccc4C(=O)NC)n3)c(Cl)cc1C2` (centres unmarked) [Example 74, 5-Chloro-4-[5-chloro-4-(2-methylcarbamoyl-phenylamino)-pyrimidin-2-ylamino]-12-aza-tricyclo[7.2.1.0*2,7*]dodeca-2(7),3,5-triene-12-carboxylic acid ethyl ester], the IC50 in test [1] (ALK kinase inhibition, 1 μM ATP (Km level), read-out: ALK Activity) is 100 to 1000 nM; in test [2] (c-Met kinase inhibition, 1 μM ATP (Km level), read-out: cMet Activity) it was above 10000 nM.
On to `CNC(=O)c1ccccc1Nc1nc(Nc2ccc3c(c2)CNC(=O)CCN3)ncc1Cl` [Example 1302, 2-[5-Chloro-2-(4-oxo-1,2,3,4,5,6-hexahydro-benzo[b][1,5]diazocin-8-ylamino)-pyrimidin-4-ylamino]-N-methyl-benzamide], for which the IC50 in test [1] (setting [5]) and in test [2] (setting [6]) was below 100 nM throughout.
`COCCOc1ccccc1Nc1nc(Nc2ccc3c(c2)CCOC(=O)N3C)ncc1Cl` [Example 1777, 2-{5-Chloro-4-[2-(2-methoxy-ethoxy)-phenylamino]-pyrimidin-2-ylamino}-5-methyl-8,9-dihydro-5H-7-oxa-5-aza-benzocyclohepten-6-one]: the IC50 in test [1] (setting [7]) and in test [2] (setting [8]) was 100 to 1000 nM each time.
As for `CNC(=O)c1ccccc1Nc1nc(Nc2ccc3c(c2)N(C(C)=O)CCCO3)ncc1Cl` [Example 1703, 2-[2-(9-Acetyl-6,7,8,9-tetrahydro-5-oxa-9-aza-benzocyclohepten-2-ylamino)-5-chloro-pyrimidin-4-ylamino]-N-methyl-benzamide], the IC50 in test [1] (setting [7]) and in test [2] (setting [8]) was below 100 nM each time.
For the compound `COCCN1CCc2ccc(Nc3ncc(Cl)c(Nc4ccccc4C(=O)NCC(C)C)n3)cc2CC1` [Example 1396, {5-Chloro-2-[3-(2-methoxy-ethyl)-2,3,4,5-tetrahydro-1H-benzo[d]azepin-7-ylamino]-pyrimidin-4-ylamino}-N-isobutyl-benzamide], the figures for the IC50 in test [1] (setting [5]) and in test [2] (setting [6]) were below 100 nM and 100 to 1000 nM, respectively.
Regarding `COCCN1CCc2ccc(Nc3ncc(Cl)c(Nc4cc(C)n[nH]4)n3)cc2CC1` [Example 955, 5-Chloro-N(2)-[3-(2-methoxy-ethyl)-2,3,4,5-tetrahydro-1H-3-benzazepin-7-yl]-N(4)-(5-methyl-2H-pyrazol-3-yl)-pyrimidine-2,4-diamine], the IC50 in test [1] (setting [3]) lay within 100 to 1000 nM; in test [2] (setting [4]) it was 1000 to 10000 nM.
